The record followed here is patent US9249145B2, “Heterocyclic derivatives of pyrazol-4-yl-pyrrolo[2,3-d]pyrimidines as janus kinase inhibitors” (Incyte Holdings Corporation, priority 2009, dated 2016).

For one assay, the target named is T1, Jak2 (a.a. 828-1132) (Homo sapiens, UniProt O60674).
T1 construct: Jak2 (a.a. 828-1132); His tag (N); made in house; host or cells: insect cells (baculovirus)
Description: In vitro JAK kinase assay (HTRF, phosphorylation of biotinylated peptide), JAK2. Conditions: 1 mM ATP; Examples 12-91; read-out: JAK2 IC50 (nM) @ 1 mM ATP. The format is biochemical. In outline:
(§1)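 IC50 from HTRF detection (Eu-Py20 antibody, SA-APC, 40 min) after EDTA quench. Reactions ran 1 h at room temperature with 500 nM biotinylated peptide in Tris pH 7.8 buffer with NaCl, DTT, BSA; ATP 90 μM for JAK1, 30 μM for JAK2 (Km), or 1 mM. Enzymes: His-tagged catalytic domains from insect cells.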
In general terms: In TR-FRET formats the signal depends on donor and acceptor labels being close together.

In assay [1] the target is T2, human JAK1 (a.a. 837-1142) (Homo sapiens, UniProt P23458).
T2 construct: The catalytic domains of human JAK1 (a.a. 837-1142); His tag (N); made in house; host or cells: insect cells (baculovirus)
Briefly: In vitro JAK kinase assay (HTRF, phosphorylation of biotinylated peptide), JAK1. It counts as biochemical. Conditions: 1 mM ATP; Examples 12-91; read-out: JAK1 IC50 (nM) @ 1 mM ATP. In outline: as §1

Where a name gives a salt, the structure may show the parent alone.

T1 sequence (O60674 828-1132): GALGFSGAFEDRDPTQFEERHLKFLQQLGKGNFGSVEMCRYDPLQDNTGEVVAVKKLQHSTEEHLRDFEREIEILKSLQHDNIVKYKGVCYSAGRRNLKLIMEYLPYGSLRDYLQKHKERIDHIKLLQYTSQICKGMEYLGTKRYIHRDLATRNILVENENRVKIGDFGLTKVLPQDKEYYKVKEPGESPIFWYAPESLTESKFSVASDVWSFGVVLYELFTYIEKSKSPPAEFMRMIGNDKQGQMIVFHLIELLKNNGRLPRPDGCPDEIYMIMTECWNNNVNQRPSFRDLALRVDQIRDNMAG
T2 sequence (P23458 849-1154): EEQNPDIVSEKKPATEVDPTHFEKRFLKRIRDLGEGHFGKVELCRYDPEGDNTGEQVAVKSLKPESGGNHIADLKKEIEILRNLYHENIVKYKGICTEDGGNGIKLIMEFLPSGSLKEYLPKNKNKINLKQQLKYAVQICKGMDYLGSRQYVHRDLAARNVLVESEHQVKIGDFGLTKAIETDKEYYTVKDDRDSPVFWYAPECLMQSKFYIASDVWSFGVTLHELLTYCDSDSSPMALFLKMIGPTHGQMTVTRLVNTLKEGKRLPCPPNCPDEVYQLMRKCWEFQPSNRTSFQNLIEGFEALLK

With `Cc1cc(F)ccc1C(=O)N1CCN(CC(CC#N)n2cc(-c3ncnc4[nH]ccc34)cn2)CC1` (centres unmarked) [Example 47, 3-(4-(7H-pyrrolo[2,3-d]pyrimidin-4-yl)-1H-pyrazol-1-yl)-4-(4-(4-fluoro-2-methylbenzoyl)piperazin-1-yl)butanenitrile], the IC50 (commonly the concentration that inhibits the measured activity by half) at Jak2 (a.a. 828-1132) is 10 to 50 nM; in assay [1] it was below 10 nM.

Turning to `N#CCC(CN1CCN(C(=O)c2ccc(F)c(F)c2F)CC1)n1cc(-c2ncnc3[nH]ccc23)cn1` (centres unmarked) [Example 48, 3-(4-(7H-pyrrolo[2,3-d]pyrimidin-4-yl)-1H-pyrazol-1-yl)-4-(4-(2,3,4-trifluorobenzoyl)piperazin-1-yl)butanenitrile phosphate salt], the figures for the IC50 (on Jak2 (a.a. 828-1132); in assay [1]) were 10 to 50 nM and below 10 nM, respectively.

Take `N#CCC(CN1CCN(C(=O)c2ccc(F)c(OC(F)(F)F)c2)CC1)n1cc(-c2ncnc3[nH]ccc23)cn1` (centres unmarked) [Example 49, 3-(4-(7H-pyrrolo[2,3-d]pyrimidin-4-yl)-1H-pyrazol-1-yl)-4-(4,-(4-fluoro-3-(trifluoromethoxy)benzoyl)piperazin-1-yl)butanenitrile]: the IC50 at Jak2 (a.a. 828-1132) is above 100 nM; in assay [1], 10 to 50 nM.

For `N#CCC(CN1CCN(C(=O)c2ccc(F)c(F)c2)CC1)n1cc(-c2ncnc3[nH]ccc23)cn1` (centres unmarked) [Example 50, 3-(4-(7H-pyrrolo[2,3-d]pyrimidin-4-yl)-1H-pyrazol-1-yl)-4-(4-(3,4-difluorobenzoyl)piperazin-1-yl)butanenitrile], the IC50 (on Jak2 (a.a. 828-1132); in assay [1]) was 10 to 50 nM each time.

For `N#CCC(CN1CCN(C(=O)c2cccc(OC(F)(F)F)c2F)CC1)n1cc(-c2ncnc3[nH]ccc23)cn1` (centres unmarked) [Example 51, 3-(4-(7H-pyrrolo[2,3-d]pyrimidin-4-yl)1H-pyrazol-1-yl)-4-(4-(2-fluoro-3-(trifluoromethoxy)benzoyl)piperazin-1-yl)butanenitrile], the IC50 (at Jak2 (a.a. 828-1132); in assay [1]) was 10 to 50 nM throughout.

Turning to `COc1cscc1C(=O)N1CCN(CC(CC#N)n2cc(-c3ncnc4[nH]ccc34)cn2)CC1` (centres unmarked) [Example 52, 3-(4-(7H-pyrrolo[2,3-d]pyrimidin-4-yl)-1H-pyrazol-1-yl)-4-(4-(4-methoxythiophene-3-carbonyl)piperazin-1-yl)butanenitrile], the results for the IC50 (at Jak2 (a.a. 828-1132); in assay [1]) were 50 to 100 nM and 10 to 50 nM, respectively.

For `N#CCC(CN1CCN(C(=O)c2cc(Cl)cc(OC(F)(F)F)c2)CC1)n1cc(-c2ncnc3[nH]ccc23)cn1` (centres unmarked) [Example 53, 3-(4-(7H-pyrrolo[2,3-d]pyrimidin-4-yl)-1H-pyrazol-1-yl)-4-(4-(3-chloro-5-(trifluoromethoxy)benzoyl)piperazin-1-yl)butanenitrile], the IC50 at Jak2 (a.a. 828-1132) was 50 to 100 nM; in assay [1] it was 10 to 50 nM.

Take `N#CCC(CN1CCN(C(=O)c2ccc(O)c(Cl)c2)CC1)n1cc(-c2ncnc3[nH]ccc23)cn1` (centres unmarked) [Example 54, 3-(4-(7H-pyrrolo[2,3-d]pyrimidin-4-yl)-1H-pyrazol-1-yl)-4-(4-(3-chloro-4-hydroxybenzoyl)piperazin-1-yl)butanenitrile trifluoroacetate salt]: the half-maximal inhibitory concentration (IC50) on Jak2 (a.a. 828-1132) was 50 to 100 nM; in assay [1], 10 to 50 nM.

Regarding `COc1c(F)cc(C(=O)N2CCN(CC(CC#N)n3cc(-c4ncnc5[nH]ccc45)cn3)CC2)cc1F` (centres unmarked) [Example 55, 3-(4-(7H-pyrrolo[2,3-d]pyrimidin-4-yl)-1H-pyrazol-1-yl)-4-(4-(3,5-difluoro-4-methoxybenzoyl)piperazin-1-yl)butanenitrile], the IC50 at Jak2 (a.a. 828-1132) was 50 to 100 nM; in assay [1] it was 10 to 50 nM.

`N#CCC(CN1CCN(C(=O)c2ccc(C(F)(F)F)c(F)c2)CC1)n1cc(-c2ncnc3[nH]ccc23)cn1` (centres unmarked) [Example 56, 3-(4-(7H-pyrrolo[2,3-d]pyrimidin-4-yl)-1H-pyrazol-1-yl)-4-(4-(3-fluoro-4-(trifluoromethyl)benzoyl)piperazin-1-yl)butanenitrile]: the IC50 at Jak2 (a.a. 828-1132) is above 100 nM; in assay [1], 10 to 50 nM.

As for `N#CCC(CN1CCN(C(=O)c2ccc(F)c(C(F)(F)F)c2)CC1)n1cc(-c2ncnc3[nH]ccc23)cn1` (centres unmarked) [Example 57, 3-(4-(7H-pyrrolo[2,3-d]pyrimidin-4-yl)-1H-pyrazol-1-yl)-4-(4-(4-fluoro-3-(trifluoromethyl)benzoyl)piperazin-1-yl)butanenitrile], the IC50 at Jak2 (a.a. 828-1132) is above 100 nM; in assay [1] it was 10 to 50 nM.

Turning to `N#CCC(CN1CCN(C(=O)c2ccccn2)CC1)n1cc(-c2ncnc3[nH]ccc23)cn1` (centres unmarked) [Example 58, 3-(4-(7H-pyrrolo[2,3-d]pyrimidin-4-yl)-1H-pyrazol-1-yl)-4-(4-picolinoylpiperazin-1-yl)butanenitrile], the values for the IC50 (at Jak2 (a.a. 828-1132); in assay [1]) were above 100 nM and 10 to 50 nM, respectively.

Consider `N#CCC(CN1CCN(C(=O)c2ccc(F)cc2C(F)(F)F)CC1)n1cc(-c2ncnc3[nH]ccc23)cn1` (centres unmarked) [Example 59], for which the IC50 on Jak2 (a.a. 828-1132) was above 100 nM; in assay [1] it was 10 to 50 nM.

For the compound `N#CCC(CN1CCN(S(=O)(=O)c2ccccc2C#N)CC1)n1cc(-c2ncnc3[nH]ccc23)cn1` (centres unmarked) [Example 60, 2-(4-(2-(4-(7H-pyrrolo[2,3-d]pyrimidin-4-yl)-1H-pyrazol-1-yl)-3-cyanopropyl)piperazin-1-ylsulfonyl)benzonitrile], the IC50 (at Jak2 (a.a. 828-1132); in assay [1]) was below 10 nM throughout.

For `N#CCC(CN1CCN(S(=O)(=O)c2cc(F)cc(F)c2)CC1)n1cc(-c2ncnc3[nH]ccc23)cn1` (centres unmarked) [Example 61, 3-(4-(7H-pyrrolo[2,3-d]pyrimidin-4-yl)-1H-pyrazol-1-yl)-4-(4-(3,5-difluorophenylsulfonyl)piperazin-1-yl)butanenitrile trifluoroacetate salt], the IC50 (on Jak2 (a.a. 828-1132); in assay [1]) was below 10 nM in each case.

`N#CCC(CN1CCN(S(=O)(=O)c2cc(F)ccc2F)CC1)n1cc(-c2ncnc3[nH]ccc23)cn1` (centres unmarked) [Example 62, 3-(4-(7H-pyrrolo[2,3-d]pyrimidin-4-yl)-1H-pyrazol-1-yl)-4-(4-(2,5-difluorophenylsulfonyl)piperazin-1-yl)butanenitrile trifluoroacetate salt]: the IC50 (on Jak2 (a.a. 828-1132); in assay [1]) was below 10 nM throughout.

On to `Cc1ccc(S(=O)(=O)N2CCN(CC(CC#N)n3cc(-c4ncnc5[nH]ccc45)cn3)CC2)nc1` (centres unmarked) [Example 63, 3-(4-(7H-pyrrolo[2,3-d]pyrimidin-4-yl)-1H-pyrazol-1-yl)-4-(4-(5-methylpyridin-2-ylsulfonyl)piperazin-1-yl)butanenitrile], for which the IC50 (at Jak2 (a.a. 828-1132); in assay [1]) was below 10 nM in each case.

Take `Cc1cccc(S(=O)(=O)N2CCN(CC(CC#N)n3cc(-c4ncnc5[nH]ccc45)cn3)CC2)n1` (centres unmarked) [Example 64, 3-(4-(7H-pyrrolo[2,3-d]pyrimidin-4-yl)-1H-pyrazol-1-yl)-4-(4-(6-methylpyridin-2-ylsulfonyl)piperazin-1-yl)butanenitrile]: the IC50 (at Jak2 (a.a. 828-1132); in assay [1]) was below 10 nM in each case.

As for `N#CCC(CN1CCN(S(=O)(=O)c2cccnc2)CC1)n1cc(-c2ncnc3[nH]ccc23)cn1` (centres unmarked) [Example 65, 3-(4-(7H-pyrrolo[2,3-d]pyrimidin-4-yl)-1H-pyrazol-1-yl)-4-(4-(pyridin-3-ylsulfonyl)piperazin-1-yl)butanenitrile], the figures for the IC50 (on Jak2 (a.a. 828-1132); in assay [1]) were 10 to 50 nM and below 10 nM, respectively.

On to `N#CCC(CN1CCN(S(=O)(=O)c2ccccc2C(F)(F)F)CC1)n1cc(-c2ncnc3[nH]ccc23)cn1` (centres unmarked) [Example 66, 3-(4-(7H-pyrrolo[2,3-d]pyrimidin-4-yl)-1H-pyrazol-1-yl)-4-(4-(2-(trifluoromethyl)phenylsulfonyl)piperazin-1-yl)butanenitrile], for which the IC50 (on Jak2 (a.a. 828-1132); in assay [1]) was below 10 nM each time.

On to `N#CCC(CN1CCN(S(=O)(=O)c2cccs2)CC1)n1cc(-c2ncnc3[nH]ccc23)cn1` (centres unmarked) [Example 67, 3-(4-(7H-pyrrolo[2,3-d]pyrimidin-4-yl)-1H-pyrazol-1-yl)-4-(4-(thiophen-2-ylsulfonyl)piperazin-1-yl)butanenitrile], for which the concentration for half-maximal inhibition (IC50) (at Jak2 (a.a. 828-1132); in assay [1]) was below 10 nM throughout.

Regarding `N#CCC(CN1CCN(S(=O)(=O)c2ccc(Cl)s2)CC1)n1cc(-c2ncnc3[nH]ccc23)cn1` (centres unmarked) [Example 68, 3-(4-(7H-pyrrolo[2,3-d]pyrimidin-4-yl)-1H-pyrazol-1-yl)-4-(4-(5-chlorothiophen-2-ylsulfonyl)piperazin-1-yl)butanenitrile], the IC50 (at Jak2 (a.a. 828-1132); in assay [1]) was below 10 nM in each case.

As to `N#CCC(CN1CCN(C(=O)Nc2c(F)cccc2F)CC1)n1cc(-c2ncnc3[nH]ccc23)cn1` (centres unmarked) [Example 69, 4-(2-(4-(7H-pyrrolo[2,3-d]pyrimidin-4-yl)-1H-pyrazol-1-yl)-3-cyanopropyl)-N-(2,6-difluorophenyl)piperazine-1-carboxamide], the IC50 at Jak2 (a.a. 828-1132) was 10 to 50 nM; in assay [1] it was below 10 nM.

On to `N#CCC(CN1CCN(C(=O)Nc2c(Cl)cccc2Cl)CC1)n1cc(-c2ncnc3[nH]ccc23)cn1` (centres unmarked) [Example 70, 4-(2-(4-(7H-pyrrolo[2,3-d]pyrimidin-4-yl)-1H-pyrazol-1-yl)-3-cyanopropyl)-N-(2,6-dichlorophenyl)piperazine-1-carboxamide], for which the IC50 was 50 to 100 nM on Jak2 (a.a. 828-1132) and 10 to 50 nM in assay [1].

On to `Cc1cccc(Cl)c1NC(=O)N1CCN(CC(CC#N)n2cc(-c3ncnc4[nH]ccc34)cn2)CC1` (centres unmarked) [Example 71, 4-(2-(4-(7H-pyrrolo[2,3-d]pyrimidin-4-yl)-1H-pyrazol-1-yl)-3-cyanopropyl)-N-(2-chloro-6-methylphenyl)piperazine-1-carboxamide], for which the IC50 (on Jak2 (a.a. 828-1132); in assay [1]) was 10 to 50 nM in each case.
